Results reported in patent US20130281399A1, “TREATMENT OF DISEASES BY EPIGENETIC REGULATION” (RVX Therapeutics Inc., priority 2012, published 2013).

Experiments:
Brd4 bromodomain 1 = target: T1, Brd4 bromodomain 1 (Homo sapiens, UniProt O60885); assay: Inhibition of binding of tetra-acetylated histone H4 to Brd4 bromodomain 1 (TR-FRET); settings: His-tagged Brd4 bromodomain 1 200 nM, tetra-acetylated histone H4 peptide 25-50 nM, 2 hours room temperature
T1 construct: made in house; host or cells: E. coli BL21(DE3)
Method in brief: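 His-tagged Brd4 BD1 was expressed in E. coli and purified by Ni affinity and size exclusion. TR-FRET competition with tetra-acetylated H4 was run in 30 mM HEPES pH 7.4, 30 mM NaCl, 0.3 mM CHAPS, 20 mM phosphate pH 7.0, 320 mM KF and 0.08% BSA, with 0.2% DMSO.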

Human AML MV-4-11 cells = assay: Inhibition of cell proliferation in human AML MV-4-11 cells (CellTiter Aqueous One); format: cell-based; design: key: Active: Compounds with an IC50 value less than 30 μM were deemed to be active; settings: 72 hours, 30 μM to 0.2 μM
Procedure: MV4-11 cells: 96-well plates were seeded with 5×10^4 cells per well of exponentially growing human AML MV-4-11 (CRL-9591) cells and immediately treated with two-fold dilutions of test compounds, ranging from 30 μM to 0.2 μM. Triplicate wells were used for each concentration, as well as a media only and three DMSO control wells. The cells and compounds were incubated at 37° C., 5% CO2 for 72 hours before adding 20 μL of the CellTiter Aqueous One Solution (Promega) to each well and incubated at 37° C., 5% CO2 for an additional 3-4 hours. The absorbance was taken at 490 nm in a spectrophotometer and the percentage of proliferation relative to DMSO-treated cells was calculated after correction from the blank well. IC50 were calculated using the GraphPad Prism software.

c-myc = assay: Inhibition of c-myc expression in MV4-11 cells (real-time PCR of mRNA); format: cell-based, Human; design: key: Active: Compounds with an IC50 value less than 30 uM were deemed to be active; settings: 3 hours at 37° C.
Procedure: MV4-11 cells (2.5×10^4 cells) were plated in 96 well U-bottom plates with test compound or DMSO (0.1%), and incubated for 3 hours at 37° C. Cells were then harvested by centrifugation, lysed, and mRNA was isolated using the mRNA catcher plus kit (Invitrogen). Reverse transcription of the mRNA and duplex amplification of the c-myc and cyclophilin cDNAs was performed using the RNA Ultrasense kit (Invitrogen) and a ViiA7 real-time PCR machine (Applied Biosystems). IC50 values were determined from a dose response curve.

multiple myeloma = settings: associated with cell cycle arrest and cellular senescence; Delmore et al. (2011); cited from earlier work
[1] = system: NUT (nuclear protein in testis) midline carcinoma (NMC); settings: Filippakopoulos et al. (2010); cited from earlier work
IL-6 = settings: cited from earlier work
[2] = murine model; Lamotte et al. (2012); cited from earlier work

Row | FRET activity (<50 uM) (Brd4 bromodomain 1) | melting point | Structure (SMILES) | further results
1 | Active |  | COc1cc(OC)c2c(=O)[nH]c(-c3ccc(N4CCN(C(C)C)CC4)cc3)nc2c1 [Example 10, 2-(4-(4-Isopropylpiperazin-1-yl)phenyl)-5,7-dimethoxyquinazolin-4(3H)-one] | cell proliferation activity (<30 uM) (Human AML MV-4-11 cells): Inactive; c-myc activity (<30 uM) (c-myc): Active
2 |  |  | Cc1sc2c(c1C)C(c1ccc(Cl)cc1)=N[C@@H](CC(=O)OC(C)(C)C)c1nnc(C)n1-2 [JQ1] | antiproliferation in multiple myeloma (multiple myeloma): potent antiproliferator; antitumor activity in murine xenograft models of NMC [1]: potent antitumor activity
3 |  |  | CCNC(=O)C[C@@H]1N=C(c2ccc(Cl)cc2)c2cc(OC)ccc2-n2c(C)nnc21 [I-BET] | IL-6 expression in vivo (IL-6): decrease IL-6 expression
4 | Active | 159 to 160 °C | COc1cc(OCCN2CCCC2)cc(-c2nc3cc(OC)cc(OC)c3c(=O)[nH]2)c1 [Example 114, 5,7-Dimethoxy-2-(3-methoxy-5-(2-(pyrrolidin-1-yl)ethoxy)phenyl)quinazolin-4(3H)-one] | cell proliferation activity (<30 uM) (Human AML MV-4-11 cells): Active; c-myc activity (<30 uM) (c-myc): Active
5 | Inactive | 264 to 265 °C | COc1cc(OCCNC(C)=O)cc(-c2nc3cc(OC)cc(OC)c3c(=O)[nH]2)c1 [Example 115, N-(2-(3-(5,7-dimethoxy-4-oxo-3,4-dihydroquinazolin-2-yl)-5-methoxyphenoxy)ethyl)acetamide] | cell proliferation activity (<30 uM) (Human AML MV-4-11 cells): Active; c-myc activity (<30 uM) (c-myc): Inactive
6 | Active | 230 to 231 °C | COc1cc(OC)c2c(=O)[nH]c(-c3ccc(OCCN4CCCC4)c(C)c3)nc2c1 [Example 73, 5,7-Dimethoxy-2-(3-methyl-4-(2-(pyrrolidin-1-yl)ethoxy)phenyl)quinazolin-4(3H)-one] | c-myc activity (<30 uM) (c-myc): Active
7 | Active | 194 to 196 °C | COc1cc(OC)c2c(=O)[nH]c(-c3cc(C)c(CCCN4CCCC4)c(C)c3)nc2c1 [Example 77, 2-(3,5-Dimethyl-4-(3-(pyrrolidin-1-yl)propyl)phenyl)-5,7-dimethoxyquinazolin-4(3H)-one] | 
8 | Inactive | 218 to 220 °C | COc1ccc2c(=O)[nH]c(-c3cc(C)c(OCCN4CCCC4)c(C)c3)nc2c1 [Example 70, 2-(3,5-Dimethyl-4-(2-(pyrrolidin-1-yl)ethoxy)phenyl)-7-methoxyquinazolin-4(3H)-one] | 
9 | Active | 178 to 180 °C | COc1cc(OCCOCc2ccccc2)cc2nc(-c3cc(C)nc(C)c3)[nH]c(=O)c12 [Example 109, 7-(2-(Benzyloxy)ethoxy)-2-(2,6-dimethylpyridin-4-yl)-5-methoxyquinazolin-4(3H)-one] | 
10 | Active | 190 to 191 °C | COc1cc(OCCN2CCCC2)c2c(=O)[nH]c(-c3cc(C)nc(C)c3)nc2c1 [Example 102, 2-(2,6-Dimethylpyridin-4-yl)-7-methoxy-5-(2-(pyrrolidin-1-yl)ethoxy)quinazolin-4(3H)-one] | 
11 | Active | 225 to 227 °C | COCCOc1cc(OC)c2c(=O)[nH]c(-c3ccc(N4C[C@@H](C)N(C(C)=O)[C@@H](C)C4)cc3)nc2c1 [Example 9, 2-(4-((3R,5S)-4-Acetyl-3,5-dimethylpiperazin-1-yl)phenyl)-5-methoxy-7-(2-methoxyethoxy)quinazolin-4(3H)-one] | 
12 | Active | 291 to 292 °C | COc1cc(OC)c2c(=O)[nH]c(-c3cc(C)nc(C)c3)nc2c1 [Example 99, 2-(2,6-Dimethylpyridin-4-yl)-5,7-dimethoxyquinazolin-4(3H)-one] | 
13 | Inactive | 228.2 to 229.9 °C | COc1cc(OCCOCc2ccccc2)cc2nc(-c3ccncc3)[nH]c(=O)c12 [Example 98, 7-(2-(Benzyloxy)ethoxy)-5-methoxy-2-(pyridin-4-yl)quinazolin-4(3H)-one] | 
14 | Active | 227 to 229 °C | COc1cc(OCCN2CCCC2)cc2nc(-c3cc(C)nc(C)c3)[nH]c(=O)c12 [Example 106, 2-(2,6-Dimethylpyridin-4-yl)-5-methoxy-7-(2-(pyrrolidin-1-yl)ethoxy)quinazolin-4(3H)-one] | 
15 | Active | 181 to 182 °C | Cc1cc(C)c2c(=O)[nH]c(-c3cc(C)c(OCCN4CCCC4)c(C)c3)nc2c1 [Example 89, 2-(3,5-Dimethyl-4-(2-(pyrrolidin-1-yl)ethoxy)phenyl)-5,7-dimethylquinazolin-4(3H)-one] | 
16 | Active | 157 to 158 °C | COc1cccc2nc(-c3cc(C)c(OCCN4CCCC4)c(C)c3)[nH]c(=O)c12 [Example 66, 2-(3,5-Dimethyl-4-(2-(pyrrolidin-1-yl)ethoxy)phenyl)-5-methoxyquinazolin-4(3H)-one] | 
17 | Active | 260 to 262 °C | COCCOc1cc(OC)c2c(=O)[nH]c(-c3ccnc(C)c3)nc2c1 [Example 110, 5-methoxy-7-(2-methoxyethoxy)-2-(2-methylpyridin-4-yl)quinazolin-4(3H)-one] | 
18 |  |  | COc1cc2c(cc1-c1c(C)noc1C)ncc1[nH]c(=O)n([C@H](C)c3ccccn3)c12 [I-BET151] | bacterial-induced inflammation and sepsis [2]: suppress bacterial-induced inflammation and sepsis; IL-6 expression in vivo (IL-6): decrease IL-6 expression
19 | Active | 219 to 221 °C | COc1cc(OC)c2c(=O)[nH]c(-c3cc(C)c(OCCN4C(=O)CN(C(C)C)C4=O)c(C)c3)nc2c1 [Example 74, 3-(2-(4-(5,7-Dimethoxy-4-oxo-3,4-dihydroquinazolin-2-yl)-2,6-dimethylphenoxy)ethyl)-1-isopropylimidazolidine-2,4-dione] | 
20 | Active | 111.8 to 113.6 °C | COc1cc(OC)c2c(=O)[nH]c(-c3cc(C)c(OCCN4CC(NC(C)=O)C4)c(C)c3)nc2c1 [Example 87, N-(1-(2-(4-(5,7-Dimethoxy-4-oxo-3,4-dihydroquinazolin-2-yl)-2,6-dimethylphenoxy)ethyl)azetidin-3-yl)acetamide] | 
21 | Active | 198 to 199 °C | COc1cc(OC)c2c(=O)[nH]c(-c3cc(C)c(OCCN4CCCCCC4)c(C)c3)nc2c1 [Example 84, 2-(4-(2-(Azepan-1-yl)ethoxy)-3,5-dimethylphenyl)-5,7-dimethoxyquinazolin-4(3H)-one] | 
22 | Active | 218 to 219 °C | COc1cc(OC)c2c(=O)[nH]c(-c3cc(C)c(OCCn4ccnc4)c(C)c3)nc2c1 [Example 69, 2-(4-(2-(1H-Imidazol-1-yl)ethoxy)-3,5-dimethylphenyl)-5,7-dimethoxyquinazolin-4(3H)-one] | 

Row | Structure (SMILES) | FRET activity (<50 uM) (Brd4 bromodomain 1) | melting point | further results
23 | COc1cc(OC)c2c(=O)[nH]c(-c3cc(C)c(OCCCCN4CCCC4)c(C)c3)nc2c1 [Example 78, 2-(3,5-Dimethyl-4-(4-(pyrrolidin-1-yl)butoxy)phenyl)-5,7-dimethoxyquinazolin-4(3H)-one] | Active | 180 to 181 °C | 
